Results on 17 compounds are retold here after PubChem BioAssay (NCI).

“And” between values parts separate entries of the source, which are not always exact repeats. Equal values may be shown once.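 96-well plates; 48 h exposure; 5 concentrations. Endpoints by linear interpolation between flanking doses. Not reached: highest tested concentration assigned. GI50 is the concentration that inhibits growth by half. TGI is the concentration that stops growth completely.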 Some results are limits rather than exact numbers.

Some test systems named below: BT-549 breast; T-47D breast; NCI-H460 lung; SNB-19 CNS; DU-145 prostate; LOX IMVI melanoma.
Holding throughout (assay): DTP human tumour cell line panel, 48 h

As for `O=C(Nc1ccc(Cl)cc1Cl)c1ccc(NC2=C(Cl)C(=O)N(Cc3ccccc3)C2=O)cc1`, the GI50 with BT-549 breast was 15.6 µM; with T-47D breast it was 23.4 µM; in the assay on NCI-H460 lung it was 15.8 µM; in the assay on SNB-19 CNS, 17.9 µM; in the assay with DU-145 prostate, 18.7 µM; in the assay with LOX IMVI melanoma it was 6.6 µM. Moreover, the TGI is 30 µM in the assay on BT-549 breast; > 100 µM in the assay with T-47D breast; 37.9 µM in the assay with NCI-H460 lung; 31.9 µM in the assay with SNB-19 CNS; 39.4 µM with DU-145 prostate; 19.1 µM with LOX IMVI melanoma.

Regarding `CN1CCN(c2ccc(C(=O)Nc3n[nH]c4ccc(Cc5cc(F)cc(F)c5)cc34)c(NC3CCOCC3)c2)CC1`, the GI50 with BT-549 breast was 5.61 µM and 1.8 µM; in the assay with T-47D breast, 1.99 µM; with NCI-H460 lung, 2.37 µM and 1.57 µM; in the assay with SNB-19 CNS it was 4.24 µM and 1.79 µM; in the assay on DU-145 prostate, 4.22 µM and 1.65 µM; with LOX IMVI melanoma, 1.35 µM and 1.34 µM. Further, the TGI is > 10 µM and 3.28 µM in the assay with BT-549 breast; > 10 µM in the assay on T-47D breast; 9.27 µM and 3.09 µM in the assay on NCI-H460 lung; > 10 µM and 3.53 µM in the assay with SNB-19 CNS; > 10 µM and 3.04 µM with DU-145 prostate; 2.7 µM and 2.69 µM in the assay on LOX IMVI melanoma.

`CCCN(CCC)CCCNCc1cc(I)cc(C)c1O`: the GI50 in the assay on BT-549 breast was 12.3 µM; in the assay with T-47D breast, 15.9 µM; in the assay with NCI-H460 lung, 13.3 µM; in the assay with SNB-19 CNS it was 18.2 µM; in the assay with DU-145 prostate it was 19.4 µM; with LOX IMVI melanoma it was 14.6 µM. The TGI is 24.8 µM with BT-549 breast; 42.1 µM with T-47D breast; 26 µM in the assay with NCI-H460 lung; 40.8 µM in the assay with SNB-19 CNS; 42 µM with DU-145 prostate; 27.7 µM with LOX IMVI melanoma.

For the compound `Nc1ccn(C2OC(CO)C(O)C2F)c(=O)n1` (stereo not drawn), the GI50 is > 5000 µM in the assay on BT-549 breast; > 5000 µM in the assay with T-47D breast; 810 µM and 773 µM with NCI-H460 lung; 19.5 µM with SNB-19 CNS; > 5000 µM in the assay with DU-145 prostate; > 5000 µM with LOX IMVI melanoma. Also, the TGI in the assay on BT-549 breast, with T-47D breast, in the assay on NCI-H460 lung, in the assay on SNB-19 CNS, with DU-145 prostate and in the assay on LOX IMVI melanoma was > 5000 µM throughout.

`COC(=O)[C@@H](NC(=O)NC(=O)NC(=O)CI)C(C)C`: the GI50 in the assay on BT-549 breast is 11.5 µM; in the assay with T-47D breast, 6 µM; in the assay with NCI-H460 lung, 18.9 µM; in the assay on SNB-19 CNS, 18.8 µM; with DU-145 prostate it was 16.4 µM; with LOX IMVI melanoma it was 1.69 µM. In addition, the TGI in the assay on BT-549 breast was 23.7 µM; in the assay with T-47D breast it was 34.5 µM; with NCI-H460 lung, 38.2 µM; in the assay on SNB-19 CNS, 37.7 µM; with DU-145 prostate it was 29.9 µM; in the assay on LOX IMVI melanoma it was 3.33 µM.

Regarding `Cc1nc2sccn2c1/C=C1/C(=O)Nc2ccccc21`, the GI50 is 17.2 µM with BT-549 breast; 0.499 µM in the assay with T-47D breast; 5.05 µM with NCI-H460 lung; > 44 µM in the assay on SNB-19 CNS; 24.4 µM in the assay with DU-145 prostate; 8.42 µM in the assay with LOX IMVI melanoma. Moreover, the TGI in the assay on BT-549 breast, in the assay on T-47D breast, in the assay on NCI-H460 lung, in the assay with SNB-19 CNS, in the assay with DU-145 prostate and in the assay with LOX IMVI melanoma was > 100 µM in each case.

Consider `COc1ccc(-c2[nH]ncc2-c2cc3c(c(OC)c2)OCC(=O)N3)cc1`, for which the GI50 is 0.469 µM in the assay with BT-549 breast; 0.406 µM in the assay on T-47D breast; 0.365 µM with NCI-H460 lung; 0.619 µM in the assay on SNB-19 CNS; 1.18 µM in the assay with DU-145 prostate; 0.522 µM in the assay with LOX IMVI melanoma. In addition, the TGI with BT-549 breast is 41.5 µM; with T-47D breast, 42.9 µM; in the assay with NCI-H460 lung, 4.79 µM; in the assay with SNB-19 CNS, > 100 µM; in the assay on DU-145 prostate, > 100 µM; in the assay on LOX IMVI melanoma it was > 100 µM.

For `CNC(=O)c1cc(COc2nnc(Nc3ccc(Cl)cc3)c3ccoc23)ccn1`, the GI50 is 3.53 µM and > 10 µM with BT-549 breast; 2.87 µM and 5.77 µM in the assay on T-47D breast; 4.21 µM and > 10 µM in the assay with NCI-H460 lung; 2.88 µM and > 10 µM with SNB-19 CNS; 9.43 µM and > 10 µM with DU-145 prostate; 6.41 µM and > 10 µM in the assay with LOX IMVI melanoma. For the same compound, the TGI is 16.6 µM and > 10 µM with BT-549 breast; 12.5 µM and > 10 µM in the assay on T-47D breast; 20.9 µM and > 10 µM with NCI-H460 lung; 21.4 µM and > 10 µM with SNB-19 CNS; 26 µM and > 10 µM with DU-145 prostate; 25.1 µM and > 10 µM in the assay on LOX IMVI melanoma.

As to `CC/C(Cc1ccccc1)=C(\c1ccc(OCCN2CCCCCC2)cc1)c1ccc(OC(=O)NCc2ccccc2)cc1`, the GI50 with BT-549 breast is 6.74 µM; in the assay on T-47D breast it was 0.916 µM; with NCI-H460 lung, 0.966 µM; with SNB-19 CNS it was 3.7 µM; in the assay on DU-145 prostate, 3.52 µM; with LOX IMVI melanoma, 0.924 µM. The TGI turned out to be 14.1 µM in the assay with BT-549 breast; 7.91 µM in the assay with T-47D breast; 1.83 µM with NCI-H460 lung; 10.4 µM in the assay with SNB-19 CNS; 10.3 µM with DU-145 prostate; 1.75 µM in the assay on LOX IMVI melanoma.

Consider `C=CC(=O)Nc1ccc(Nc2nccc(-c3ccc(N4CCCC4)c(C#N)c3)n2)cc1`, for which the GI50 in the assay on BT-549 breast was > 25 µM; in the assay on T-47D breast, > 25 µM; in the assay on NCI-H460 lung, 4.61 µM; in the assay on SNB-19 CNS it was > 25 µM; in the assay on DU-145 prostate, 14.1 µM; in the assay with LOX IMVI melanoma it was > 25 µM. In addition, the TGI with BT-549 breast, in the assay with T-47D breast, in the assay with NCI-H460 lung, in the assay on SNB-19 CNS, in the assay on DU-145 prostate and in the assay with LOX IMVI melanoma was > 25 µM in each case.

With `CC(=O)N1CCN(C2=Nc3ccccc3CO2)C1=S`, the GI50 with BT-549 breast is 40.1 µM; in the assay with T-47D breast, 33 µM; in the assay with NCI-H460 lung, 70.5 µM; in the assay with SNB-19 CNS, > 100 µM; in the assay on DU-145 prostate, > 100 µM; in the assay on LOX IMVI melanoma, 52.4 µM. Moreover, the TGI in the assay on BT-549 breast, in the assay on T-47D breast, with NCI-H460 lung, with SNB-19 CNS, in the assay on DU-145 prostate and with LOX IMVI melanoma was > 100 µM throughout.

Turning to `Cc1c2cnccc2c(C)c2c1c1cc(C3OCCCO3)ccc1n2C`, the GI50 in the assay on BT-549 breast was 0.52 µM; in the assay on T-47D breast it was 0.299 µM; in the assay on NCI-H460 lung, 0.293 µM; in the assay on SNB-19 CNS, 0.295 µM; in the assay on DU-145 prostate it was 0.371 µM; in the assay on LOX IMVI melanoma it was 0.146 µM. In addition, the TGI in the assay with BT-549 breast is 2.11 µM; in the assay with T-47D breast it was 3.16 µM; in the assay with NCI-H460 lung, 1.15 µM; with SNB-19 CNS, 2.97 µM; in the assay on DU-145 prostate, 1.58 µM; in the assay on LOX IMVI melanoma, 0.659 µM.

For the compound `COc1ccc(C#Cc2ccccc2C#CCCCCO)cc1`, the GI50 was 21.1 µM in the assay with BT-549 breast; 22 µM in the assay on T-47D breast; 19.4 µM in the assay with NCI-H460 lung; 21.4 µM in the assay on SNB-19 CNS; 21.3 µM with DU-145 prostate; 16.9 µM with LOX IMVI melanoma. Besides, the TGI came out at 46.1 µM with BT-549 breast; 43.8 µM in the assay with T-47D breast; 39.9 µM in the assay with NCI-H460 lung; 36.9 µM in the assay with SNB-19 CNS; 52.6 µM in the assay on DU-145 prostate; 30.6 µM in the assay on LOX IMVI melanoma.

In the case of `COc1cc2c(cc1OC)C13CCN4C=C5CCOC6CC(=O)N2C1C6C5CC43` (stereo not drawn), the TGI with BT-549 breast, with T-47D breast, with NCI-H460 lung, in the assay with SNB-19 CNS, with DU-145 prostate and in the assay with LOX IMVI melanoma was > 100 µM in each case.

Turning to `CN(C)CCCOc1ccccc1NC1=C(Cl)C(=O)C(Nc2ccccc2OCCCN(C)C)=C(Cl)C1=O`, the GI50 with BT-549 breast was 1.62 µM; with T-47D breast it was 0.209 µM; with NCI-H460 lung it was 1.32 µM; in the assay on SNB-19 CNS, 1.57 µM; in the assay on DU-145 prostate, 0.709 µM; in the assay with LOX IMVI melanoma it was 0.18 µM. Further, the TGI stood at 2.99 µM with BT-549 breast; 0.591 µM in the assay with T-47D breast; 2.85 µM with NCI-H460 lung; 3.02 µM in the assay with SNB-19 CNS; 1.77 µM in the assay with DU-145 prostate; 0.355 µM in the assay with LOX IMVI melanoma.

For the compound `CO[C@H](C(=O)[C@@H](O)[C@@H](C)O)[C@@H]1Cc2cc3cc(O[C@H]4C[C@@H](O[C@H]5C[C@@H](O)[C@H](O)C(C)O5)[C@H](O)C(C)O4)c(C)c(O)c3c(O)c2C(=O)[C@H]1O[C@H]1C[C@@H](O[C@H]2C[C@@H](O[C@H]3C[C@@H](OC)[C@H](O)C(C)O3)[C@@H](O)C(C)O2)C(O)(O)C(C)O1` (stereo partly drawn), the GI50 in the assay on BT-549 breast was 0.107 µM; in the assay with T-47D breast it was 0.0543 µM; in the assay on NCI-H460 lung, 0.033 µM; in the assay with SNB-19 CNS, 0.0971 µM; in the assay with DU-145 prostate it was 0.237 µM; with LOX IMVI melanoma, 0.0745 µM. Also, the TGI was 1.64 µM in the assay with BT-549 breast; 24.6 µM in the assay with T-47D breast; > 25 µM with NCI-H460 lung; > 25 µM with SNB-19 CNS; > 25 µM in the assay with DU-145 prostate; 3.68 µM with LOX IMVI melanoma.

As to `Cc1c2cc[nH]c(=O)c2c(C)c2c1[nH]c1cc(OCCN3CCN(C)CC3)ccc12`, the GI50 in the assay on BT-549 breast is 2.71 µM; with T-47D breast, 0.782 µM; with NCI-H460 lung it was 0.418 µM; with SNB-19 CNS, 0.946 µM; in the assay on DU-145 prostate, 0.813 µM; in the assay with LOX IMVI melanoma, 0.484 µM. Moreover, the TGI in the assay with BT-549 breast came out at 11.4 µM; with T-47D breast, 15.2 µM; in the assay with NCI-H460 lung, 1.84 µM; with SNB-19 CNS, 11.2 µM; with DU-145 prostate it was 8.97 µM; with LOX IMVI melanoma it was 1.9 µM.
